Data on 1 compound can be found in patent US8364409B2 (priority 2006, dated 2013).

This assay relates to sensitive M bovis strain. It is filed as cell-based, Mycobacterium bovis BCG.

Regarding `NNC(=O)c1ccncc1` [INH, isoniazid], the “stress response (Impedance Response profile)” value is “varies with the drug concentration”.
